Data on 35 compounds can be found in patent US8796268B2, “Heteroaryls and uses thereof” (Millennium Pharmaceuticals, Inc., priority 2010, dated 2014).

Common to all, as to assay type: biochemical
One test deals with T1, Human PI3K delta (Homo sapiens, UniProt O00329).
T1 construct: His (N); host or cells: SF9 insect cells (baculovirus)
The test is described as follows: Human PI3K delta enzyme assay (HTRF). The settings on record: concentration not given; b1389 states 1.0 μM for PI3K δ and γ; read-out: p110 delta Percent Inhibition. An excerpt:
(§1) The catalytic subunits of PI3Ks are cloned into either pDEST8(p110 alpha) or pDEST10(p110beta, p110delta, and p110gamma) as N-terminal His tagged fusion proteins using the Gateway system (Invitrogen, catalog#11804-010 for pDEST8 and 11806-015 for pDEST10). The sequences are verified before recombinant protein expression using the Baculovirus Expression System with Gateway® Technology. The accession numbers for the subunits are as follows: • p110 alpha (GB:U79143) • p110beta (GB: S67334) • p110delta (GB: U86453) • p110gamma (GB: X83368) • The regulatory subunits of PI3Ks are cloned into pDEST8 as un-tagged protein using the Gateway system (Catalog#11804-010). The sequences are verified before recombinant protein expression using the Baculovirus Expression System with Gateway® Technology. The accession numbers for the subunits are as following: • p85 alpha (GB: BC030815) • p101(GB: AB028925) • VPS34 (accession number GB:BC033004) is cloned into pDEST20—Thombin as N-terminal GST tagged fusion proteins using the Gateway system (Invitrogen, catalog#11804-013). The sequences are verified before recombinant protein expression using the Baculovirus Expression System with Gateway® Technology.
(§2) For expression of the p110 complexes, the p85 (MOI of 4) is co-infected with p110 alpha, beta, and delta respectively (1MOI) in SF9 cells and harvested at 60 hours post co-infection. P110 gamma was infected at 1 MOI and harvested at 60 hours post infection.
(§3) For purification, PI3Ks are purified by Ni-NTA Agarose (Qiagen #30250) followed by Mono Q 10/100 GL (Ge Healthcare #17-5167-01). VPS34 is purified by Glutathione Sepharose 4 Fast Flow (GE Healthcare #17-5132-03) followed by HiTrap Q (GE Healthcare #17-1153-01).
(§4) 0.5 uL compounds in DMSO are added to wells of a 384 well microtitre plate (Corning 3575). At room temperature: 10 ul PI3K reaction buffer (50 mM Hepes, 5 mM DTT, 150 mM NaCl, 10 mM beta-glycerophosphate, 10 mM MgCl2, 0.25 mM sodium cholate and 0.001% CHAPS, pH 7.00) containing ATP (25 uM, Promega) is added followed immediately by 10 ul PI3K reaction buffer containing di-C8 P1(4,5)P2 (3.5 uM, CellSignals) and PI3Kalpha (0.4875 nM, Millennium Protein Sciences Group) and the mixture is incubated with shaking at room temperature for 30 minutes. Then 5 ul PI3K stop mix (50 mM Hepes, 5 mM DTT, 150 mM NaCl, 0.01% Tween-20, 15 mM EDTA and 25 nM biotin-PI(3,4,5)P3 (Echelon) is added to quench the reaction followed immediately by addition of 5 ul HTRF detection mix (50 mM Hepes, 5 mM DTT, 150 mM NaCl, 0.01% Tween-20, 40 mM KF, 1.0 nM GST:GRP-1 PH domain (Millennium Protein Sciences Group), 15 nM Streptavidin-XL (CisBio) and 0.375 nM anti-GST Eu++ antibody (CisBio) at pH 7.00). The plates are then incubated for 1 hour at room temperature with shaking and then read on a BMG PheraStar Plus reader.
(§5) 2) Human PI3K beta, delta and gamma isoforms are tested using the procedure described for PI3K alpha above but with the following changes: PI3K beta (5.25 nM), PI3K delta (0.75 nM) and PI3K gamma (5 nM). All isoforms supplied by Millennium Protein Science Group.
(§6) For the assay methods described above, test compound percent inhibition, at various concentrations, is calculated relative to control (DMSO and EDTA) treated samples. Compound concentration versus percent inhibition curves are fitted to generate IC50 values. One skilled in the art will appreciate that the values generated either as percentage inhibition at a single concentration or IC50 values are subject to experimental variation.
In general terms: TR-FRET usually uses a lanthanide donor and a delayed reading to cut background.

A further test deals with T2, Human PI3K beta (Homo sapiens, UniProt P42338).
T2 construct: His (N); host or cells: SF9 insect cells (baculovirus)
T2 sequence (P42338 whole entry): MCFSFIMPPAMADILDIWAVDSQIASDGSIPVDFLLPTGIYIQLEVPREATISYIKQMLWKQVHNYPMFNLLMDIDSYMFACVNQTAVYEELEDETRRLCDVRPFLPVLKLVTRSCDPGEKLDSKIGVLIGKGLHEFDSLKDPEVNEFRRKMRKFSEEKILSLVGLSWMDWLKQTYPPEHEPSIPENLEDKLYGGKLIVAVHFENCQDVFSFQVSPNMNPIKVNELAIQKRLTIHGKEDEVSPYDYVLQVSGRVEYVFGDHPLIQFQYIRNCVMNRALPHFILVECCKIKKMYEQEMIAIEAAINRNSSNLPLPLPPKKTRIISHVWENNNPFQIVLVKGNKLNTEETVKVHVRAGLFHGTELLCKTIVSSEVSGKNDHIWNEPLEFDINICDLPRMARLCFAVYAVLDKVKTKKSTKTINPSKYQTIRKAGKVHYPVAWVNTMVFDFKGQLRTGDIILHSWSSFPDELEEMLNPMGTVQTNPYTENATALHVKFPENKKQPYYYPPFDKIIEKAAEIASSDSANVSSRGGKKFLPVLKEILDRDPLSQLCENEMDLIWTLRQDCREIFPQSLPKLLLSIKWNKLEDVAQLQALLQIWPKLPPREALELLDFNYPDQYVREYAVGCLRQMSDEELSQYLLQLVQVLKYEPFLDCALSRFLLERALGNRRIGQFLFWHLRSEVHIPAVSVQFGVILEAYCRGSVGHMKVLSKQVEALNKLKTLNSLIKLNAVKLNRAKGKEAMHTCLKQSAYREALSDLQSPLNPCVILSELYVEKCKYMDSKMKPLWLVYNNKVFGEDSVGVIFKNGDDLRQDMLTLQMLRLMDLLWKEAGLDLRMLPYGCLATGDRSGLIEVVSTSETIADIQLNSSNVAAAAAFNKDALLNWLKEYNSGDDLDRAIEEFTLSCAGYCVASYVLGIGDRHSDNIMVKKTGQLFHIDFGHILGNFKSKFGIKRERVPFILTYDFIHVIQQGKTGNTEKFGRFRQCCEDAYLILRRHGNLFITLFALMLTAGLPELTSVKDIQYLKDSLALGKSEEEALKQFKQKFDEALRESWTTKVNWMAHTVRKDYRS
T2 sequence (P27986 whole entry partner): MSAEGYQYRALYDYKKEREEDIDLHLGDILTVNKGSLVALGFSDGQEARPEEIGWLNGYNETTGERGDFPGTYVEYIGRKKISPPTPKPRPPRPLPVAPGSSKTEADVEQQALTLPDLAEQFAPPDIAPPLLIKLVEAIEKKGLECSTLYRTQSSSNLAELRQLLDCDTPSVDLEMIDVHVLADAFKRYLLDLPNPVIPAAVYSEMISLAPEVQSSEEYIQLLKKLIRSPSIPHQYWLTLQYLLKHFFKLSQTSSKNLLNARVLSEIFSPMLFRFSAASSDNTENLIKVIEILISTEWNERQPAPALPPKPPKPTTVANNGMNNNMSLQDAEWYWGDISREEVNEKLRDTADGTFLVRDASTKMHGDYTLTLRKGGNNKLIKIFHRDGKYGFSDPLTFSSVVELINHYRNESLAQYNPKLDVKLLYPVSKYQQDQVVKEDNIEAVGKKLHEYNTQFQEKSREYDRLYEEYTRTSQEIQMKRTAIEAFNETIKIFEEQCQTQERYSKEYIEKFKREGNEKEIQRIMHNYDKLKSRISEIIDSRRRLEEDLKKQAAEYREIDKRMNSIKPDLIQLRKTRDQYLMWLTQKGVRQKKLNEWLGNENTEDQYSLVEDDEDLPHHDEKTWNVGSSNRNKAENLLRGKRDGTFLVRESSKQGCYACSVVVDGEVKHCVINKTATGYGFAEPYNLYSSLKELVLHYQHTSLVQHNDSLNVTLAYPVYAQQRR
Description: Human PI3K beta enzyme assay (HTRF). The settings on record: for IC50: read-out: PI3 Kbeta IC50.
Excerpt: as §1, §2, §3, §4, §5, §6

The next test concerns the target T3, Human PI3K alpha (Homo sapiens, UniProt P42336).
T3 construct: His (N); host or cells: SF9 insect cells (baculovirus)
Description: Human PI3K alpha enzyme assay (HTRF). The conditions noted are these: for IC50: read-out: PI3Kalpha IC50.
Excerpt: as §1, §2, §3
1) Human PI3K alpha enzyme assay method
as §4, §6

Each structure is given as a SMILES string. Some results are limits rather than exact numbers.

T1 sequence (O00329 whole entry): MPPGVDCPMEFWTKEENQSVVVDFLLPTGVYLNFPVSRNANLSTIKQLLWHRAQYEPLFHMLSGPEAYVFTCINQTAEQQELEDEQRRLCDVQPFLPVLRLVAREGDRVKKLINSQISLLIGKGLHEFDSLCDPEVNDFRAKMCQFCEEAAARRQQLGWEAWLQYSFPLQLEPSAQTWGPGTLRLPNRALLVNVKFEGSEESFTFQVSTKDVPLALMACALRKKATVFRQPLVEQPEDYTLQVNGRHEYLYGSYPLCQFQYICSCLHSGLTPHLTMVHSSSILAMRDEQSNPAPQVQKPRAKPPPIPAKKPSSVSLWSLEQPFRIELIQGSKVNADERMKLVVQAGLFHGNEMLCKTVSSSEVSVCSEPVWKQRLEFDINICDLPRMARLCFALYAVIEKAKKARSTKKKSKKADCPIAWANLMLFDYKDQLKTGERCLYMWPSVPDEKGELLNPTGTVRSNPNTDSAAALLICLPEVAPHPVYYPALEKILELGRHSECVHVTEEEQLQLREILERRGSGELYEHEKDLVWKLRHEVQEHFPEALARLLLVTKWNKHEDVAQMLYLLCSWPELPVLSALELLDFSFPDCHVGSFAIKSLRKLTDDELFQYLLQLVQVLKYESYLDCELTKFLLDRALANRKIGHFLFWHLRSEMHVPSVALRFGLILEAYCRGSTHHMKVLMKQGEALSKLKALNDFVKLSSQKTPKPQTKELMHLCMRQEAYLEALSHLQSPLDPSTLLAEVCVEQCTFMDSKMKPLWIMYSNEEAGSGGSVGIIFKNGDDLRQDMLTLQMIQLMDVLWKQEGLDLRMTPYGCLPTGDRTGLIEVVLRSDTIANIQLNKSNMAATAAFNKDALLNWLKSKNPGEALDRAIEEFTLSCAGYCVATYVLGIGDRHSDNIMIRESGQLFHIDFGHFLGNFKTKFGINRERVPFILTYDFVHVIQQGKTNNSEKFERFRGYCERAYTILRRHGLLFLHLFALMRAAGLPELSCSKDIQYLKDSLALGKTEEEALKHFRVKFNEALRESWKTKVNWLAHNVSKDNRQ
T1 sequence (P27986 whole entry partner): as the sequence (P27986 whole entry partner) above
T3 sequence (P42336 whole entry): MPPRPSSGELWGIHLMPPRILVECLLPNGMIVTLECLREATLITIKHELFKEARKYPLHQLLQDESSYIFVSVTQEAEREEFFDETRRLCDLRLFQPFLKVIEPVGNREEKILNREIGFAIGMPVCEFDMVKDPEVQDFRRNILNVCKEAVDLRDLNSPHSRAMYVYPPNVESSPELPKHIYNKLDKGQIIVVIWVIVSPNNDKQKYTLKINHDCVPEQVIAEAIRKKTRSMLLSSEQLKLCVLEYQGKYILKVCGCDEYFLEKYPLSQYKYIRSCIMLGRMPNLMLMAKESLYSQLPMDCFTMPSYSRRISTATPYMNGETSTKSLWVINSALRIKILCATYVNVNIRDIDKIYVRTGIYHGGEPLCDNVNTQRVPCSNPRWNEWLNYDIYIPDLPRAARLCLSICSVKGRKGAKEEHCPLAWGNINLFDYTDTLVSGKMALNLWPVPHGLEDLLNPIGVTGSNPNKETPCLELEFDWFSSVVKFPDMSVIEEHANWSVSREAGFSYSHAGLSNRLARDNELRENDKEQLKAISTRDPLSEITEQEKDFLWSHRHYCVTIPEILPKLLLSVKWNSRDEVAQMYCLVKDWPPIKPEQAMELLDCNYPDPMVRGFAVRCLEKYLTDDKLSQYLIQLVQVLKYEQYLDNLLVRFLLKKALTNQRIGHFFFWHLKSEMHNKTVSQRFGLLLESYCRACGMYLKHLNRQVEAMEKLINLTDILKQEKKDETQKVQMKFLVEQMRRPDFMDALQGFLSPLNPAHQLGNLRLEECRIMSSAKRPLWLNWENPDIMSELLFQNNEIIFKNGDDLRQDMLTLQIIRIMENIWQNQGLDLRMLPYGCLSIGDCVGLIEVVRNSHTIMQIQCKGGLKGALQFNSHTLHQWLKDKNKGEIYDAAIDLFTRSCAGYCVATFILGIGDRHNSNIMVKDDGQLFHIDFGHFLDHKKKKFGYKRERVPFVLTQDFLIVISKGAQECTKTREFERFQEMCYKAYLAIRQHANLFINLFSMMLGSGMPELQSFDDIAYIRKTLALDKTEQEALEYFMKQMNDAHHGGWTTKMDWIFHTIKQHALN
T3 sequence (P27986 whole entry partner): as the sequence (P27986 whole entry partner) above

For `N#Cc1c(N2CCOCC2)sc(C(=O)O)c1Cc1ccc2c(F)cccc2c1` [Compound 343], at Human PI3K delta, the inhibition at 1 µM came out at 113%.
Same read-out and setting: as for `N#Cc1c(N2CCOCC2)sc(C(N)=O)c1C(F)(F)c1ccc2ccccc2c1` [Compound 307], the figure is 62%; as for `N#Cc1c(N2CCOCC2)sc(C(=O)O)c1C(F)(F)c1ccc2ccccc2c1` [Compound 308], 92%; as for `N#Cc1c(N2CCOCC2)sc(-c2nnn[nH]2)c1C(F)(F)c1ccc2ccccc2c1` [Compound 349], 96%.
As for `O=C(O)c1sc(N2CCOCC2)nc1Cc1ccc2c(c1)OCCO2` [Compound 110, 4-(2,3-dihydro-1,4-benzodioxin-6-ylmethyl)-2-(morpholin-4-yl)-1,3-thiazole-5-carboxylic acid], the inhibition at 1.1 µM at Human PI3K beta (at a 1.1 μM concentration, read-out: PI3β Percent Inhibition) amounted to 41%; at Human PI3K alpha (at a 1.1 μM concentration, read-out: PI3Kα Percent Inhibition), 5%.
Usually IC50 stands for the concentration at which inhibition is half-maximal. Regarding `O[C@@H](c1ccc(Cl)cc1)c1cc(-c2ccnc(Cl)c2)sc1-c1nnc[nH]1` (single isomer, unassigned) [Compound 40], the half-inhibitory concentration (IC50) on Human PI3K beta and on Human PI3K alpha was 100 to 1000 nM throughout.
Turning to `COc1cc(-c2cc(C(O)c3ccc(Cl)cc3)c(-c3nnc[nH]3)s2)ccn1` (stereo not drawn) [Compound 17], the IC50 at Human PI3K beta is 100 to 1000 nM; at Human PI3K alpha, > 1000 nM.
In the same order, the values of `Cc1noc(C)c1-c1nc(Cc2ccc(Cl)cc2)c(-c2nnc[nH]2)s1` [Compound 46] are 100 to 1000 nM and > 1000 nM.
In the same order, the values of `N#Cc1c(-c2ccnnc2)sc(-c2nnc[nH]2)c1Cc1ccc(Cl)cc1` [Compound 89] are 100 to 1000 nM and > 1000 nM.
In the same order, the values of `Cc1nn2ccc(CN(CCN)Cc3ccccc3)cc2c1-c1nc(Cc2ccc(Cl)cc2)c(-c2nnc[nH]2)s1` [Compound 83] are 100 to 1000 nM and 100 to 1000 nM.
With `O[C@@H](c1ccc(Cl)cc1)c1cc(-c2ccncc2)sc1-c1nnc[nH]1` [Compound 84], the 50% inhibitory concentration (IC50) at Human PI3K beta is 100 to 1000 nM; at Human PI3K alpha, > 1000 nM.
In the same order, the values of `Nc1cc(-c2cc(C(O)c3ccc(Cl)cc3)c(-c3nnc[nH]3)s2)ccn1` (stereo not drawn) [Compound 75] are < 100 nM and > 1000 nM.
For `N#Cc1c(-c2ccnc(N)c2)sc(-c2nnc[nH]2)c1Cc1ccc(Cl)cc1` [Compound 12, 2-(2-aminopyridin-4-yl)-4-(4-chlorobenzyl)-5-(4H-1,2,4-triazol-3-yl)thiophene-3-carbonitrile], the values for the half-maximal inhibitory concentration (IC50) on Human PI3K beta and on Human PI3K alpha were 100 to 1000 nM and > 1000 nM, respectively.
As for `Cc1nn2ccc(CNCCN)cc2c1-c1nc(Cc2ccc(Cl)cc2)c(-c2nnc[nH]2)s1` [Compound 54], the concentration for half-maximal inhibition (IC50) on Human PI3K beta and at Human PI3K alpha was 100 to 1000 nM throughout.
As for `OC(c1ccc(Cl)cc1)c1cc(-c2ncncc2F)sc1-c1nnc[nH]1` (stereo not drawn) [Compound 68], the half-maximal inhibitory concentration (IC50) at Human PI3K beta is 100 to 1000 nM; at Human PI3K alpha, > 1000 nM.
`Clc1ccc(Cc2nc(-c3ccncc3)sc2-c2ncc[nH]2)cc1` [Compound 15, 4-(4-chlorobenzyl)-5-(1H-imidazol-2-yl)-2-(pyridin-4-yl)thiazole]: the half-inhibitory concentration (IC50) at Human PI3K beta is 100 to 1000 nM; at Human PI3K alpha, > 1000 nM.
In the same order, the values of `OC(c1ccc(Cl)cc1)c1cc(-c2ccncc2Cl)sc1-c1nc[nH]n1` (stereo not drawn) [Compound 25] are 100 to 1000 nM and > 1000 nM.
In the same order, the values of `CN(C)C(c1ccc(Cl)cc1)c1cc(-c2ccncc2)sc1-c1nnc[nH]1` (stereo not drawn) [Compound 9, 1-(4-chlorophenyl)-N,N-dimethyl-1-[5-pyridin-4-yl-2-(4H-1,2,4-triazol-3-yl)-3-thienyl]methanamine] are < 100 nM and > 1000 nM.
In the same order, the values of `O=c1ccnc(-c2sc(-c3ccncc3)nc2Cc2ccc(Cl)cc2)[nH]1` [Compound 92, 2-(4-(4-chlorobenzyl)-2-(pyridin-4-yl)thiazol-5-yl)pyrimidin-4(3H)-one] are < 100 nM and > 1000 nM.
As to `OC(c1ccc(Cl)cc1)c1cc(-c2ccncc2)sc1-c1nnc[nH]1` (stereo not drawn) [Compound 52], the figures for the IC50 at Human PI3K beta and on Human PI3K alpha were < 100 nM and > 1000 nM, respectively.
Regarding `CC(=O)Nc1cc(-c2cc(C(c3ccc(Cl)cc3)N(C)C)c(-c3nnc[nH]3)s2)ccn1` (stereo not drawn) [Compound 86], the IC50 on Human PI3K beta was < 100 nM; on Human PI3K alpha it was 100 to 1000 nM.
In the same order, the values of `N#Cc1c(-c2ccncc2)sc(C(=O)O)c1Cc1ccc(Cl)cc1` [Compound 36] are < 100 nM and > 1000 nM.
In the same order, the values of `O[C@@H](c1ccc(Cl)cc1)c1nc(-c2ccncc2)sc1-c1nnc[nH]1` (single isomer, unassigned) [Compound 70, (4-chlorophenyl)[2-pyridin-4-yl-5-(1H-1,2,4-triazol-3-yl)-1,3-thiazol-4-yl]methanol] are 100 to 1000 nM and > 1000 nM.
Regarding `O[C@H](c1ccc(Cl)cc1)c1cc(-c2ccnnc2)sc1-c1nnc[nH]1` [Compound 59], the IC50 on Human PI3K beta is < 100 nM; at Human PI3K alpha, > 1000 nM.
In the same order, the values of `O=C1CCc2c(-c3cc(C(O)c4ccc(Cl)cc4)c(-c4nnc[nH]4)s3)ccnc2N1` (stereo not drawn) [Compound 64] are 100 to 1000 nM and 100 to 1000 nM.
In the same order, the values of `OC(c1ccc(Cl)cc1)c1cc(-c2ccnc3sccc23)sc1-c1nnc[nH]1` (stereo not drawn) [Compound 57] are 100 to 1000 nM and 100 to 1000 nM.
In the case of `Cc1nn2ccc(CNCCCN)cc2c1-c1nc(Cc2ccc(Cl)cc2)c(-c2nnc[nH]2)s1` [Compound 38], the 50% inhibitory concentration (IC50) on Human PI3K beta and at Human PI3K alpha was 100 to 1000 nM throughout.
On to `CNc1cc(-c2cc(C(O)c3ccc(Cl)cc3)c(-c3nnc[nH]3)s2)ccn1` (stereo not drawn) [Compound 62], for which the IC50 at Human PI3K beta is 100 to 1000 nM; at Human PI3K alpha it was > 1000 nM.
In the same order, the values of `CC(C)NC(c1ccc(Cl)cc1)c1cc(-c2ccncc2)sc1-c1nnc[nH]1` (stereo not drawn) [Compound 33] are 100 to 1000 nM and > 1000 nM.
Turning to `OC(c1ccc(Cl)cc1)c1cc(-c2ccnc3ccsc23)sc1-c1nnc[nH]1` (stereo not drawn) [Compound 13], the IC50 at Human PI3K beta and on Human PI3K alpha was < 100 nM in each case.
In the case of `CC(=O)Nc1cc(-c2cc(C(c3ccc(Cl)cc3)N3CCC3)c(-c3nnc[nH]3)s2)ccn1` (stereo not drawn) [Compound 90], the values for the half-inhibitory concentration (IC50) on Human PI3K beta and at Human PI3K alpha were < 100 nM and 100 to 1000 nM, respectively.
In the same order, the values of `Cc1nn2ccc(CNCc3ccccc3)cc2c1-c1nc(Cc2ccc(Cl)cc2)c(-c2nnc[nH]2)s1` [Compound 32] are 100 to 1000 nM and 100 to 1000 nM.
In the same order, the values of `CC(=O)Nc1cc(-c2nc(Cc3ccc(Cl)cc3)c(-c3ncc[nH]3)s2)ccn1` [Compound 73] are 100 to 1000 nM and > 1000 nM.
In the same order, the values of `CC(=O)Nc1cc(-c2sc(-c3nnc[nH]3)c(Cc3ccc(Cl)cc3)c2C#N)ccn1` [Compound 71, N-{4-[4-(4-chlorobenzyl)-3-cyano-5-(4H-1,2,4-triazol-3-yl)-2-thienyl]pyridin-2-yl}acetamide] are 100 to 1000 nM and 100 to 1000 nM.
In the case of `CC(=O)Nc1cc(-c2nc(NC(=O)c3ccccc3)c(-c3ncc[nH]3)s2)ccn1` [Compound 29, N-(2-(2-acetamidopyridin-4-yl)-5-(1H-imidazol-2-yl)thiazol-4-yl)benzamide], the IC50 was > 1000 nM on Human PI3K beta and < 100 nM on Human PI3K alpha.
